Holding throughout (type): cell-based, human
For experiment [1], the system named is CD4+ clone 436/B6.34 (B6/34). The experiment in a line: TNF/IFN-γ production by CD4+ clone B6/34 stimulated with peptide-pulsed EBV-B cells. As for the experimental part:
In order to identify the MAGE-A3 peptides recognized by these CD4^+ clones, 16 amino acid peptides, corresponding to parts of the MAGE-A3 protein sequence were synthesized, loaded on the autologous EBV-B cells and tested for recognition (FIGS. 4 and 5). Peptides were synthesized using F-moc for transient NH2-terminal protection and were characterized using mass spectrometry. All peptides were >80% pure as indicated by analytical HPLC. Lyophilized synthetic peptides were dissolved in DMSO (Merck) and used at a final concentration of 500 μM, 50 μM or 5 μg/ml. EBV-B cells (5,000 per round-bottomed microwell) were incubated 2 hours at 37° C., 8% CO2 in the presence of the different peptides, the indicated concentrations representing the peptide concentration during the incubation step. CD4^+ clones were then added at 2,500 cells per well. Assay medium was Iscove's medium supplemented with L-glutamine, L-arginine, L-asparagine, 10% human serum and IL-2 (25 U/ml). After 18-20 hours, supernatants were harvested and assessed for TNF-α and/or IFN-γ secretion. IFN-γ production was measured using an ELISA test (20-4000 pg/ml) developed in the laboratory with reagents from Medgenix Diagnostics-Biosource (Fleurus, Belgium).

Another experiment has as its system LB1158 CD4+ clone 22. The experiment in a line: IFN-γ production by CD4+ clone 22 stimulated with peptide- or protein-pulsed EBV-B cells. The note with it: for IFN-γ production after stimulation with peptide of clone 22: 1 μg/ml peptide. On the procedure:
(§1) In order to confirm the efficacy of this protocol, dendritic cells were fed with the MAGE-3 protein, using conditions described above, to stimulate autologous CD4^+ T lymphocytes from hemochromatosis patient LB1158 or from melanoma patient 7002. After four restimulations, the specific production of IFN-γ by an aliquot of each of the microcultures stimulated with the autologous EBV-B cells loaded with MAGE-A3 were tested on day 35 for patient LB1158 and day 37 for patient 7002. For each individual, one positive microculture was cloned using autologous EBV-B cells as stimulating cells, either retrotransduced with MFG Ii MAGE-A3 for LB1158, or fed with protein MAGE-A3 for patient 7002. […] Specifically, autologous EBV-B cells were incubated for 20 h in the presence of 20 μg/ml of recombinant His-MAGE-A3 protein. Clone 22 (2500 cells) was incubated overnight with 5000 MAGE-A3 loaded EBV-B cells in round botton microwells in the presence or absence of monoclonal antibodies which recognize HLA-A,B,C (W6/32) or HLA-DR (2B6). IFN-γ secretion was measured after 20 h by ELISA (FIG. 15A).
(§2) Peptides corresponding to parts of MAGE-A3 (e.g., MAGE107-122, MAGE111-126, MAGE115-130, MAGE119-134) were tested for recognition by clone 2 and 22. HLA-DR13 EBV-B cells were pulsed for 2 h with different concentrations of these peptides. Clones 2 and 37 (2500 cells) were incubated with 5000 peptide pulsed cells in round-bottomed microwells for 20 h and assayed for IFN-γ production.
(§3) Autologous or allogeneic EBV-B cells were pulsed for 2 h with 1 μg/ml MAGE-A3119-134 peptide, and then washed. Clones 2 or 22 were incubated with 5000 peptide-pulsed EBV-B cells in round-bottomed microwells for 20 h and the clones' reactivity to the EBV-B cells was measured by ELISA as IFN-γ secretion. Experiments were performed in triplicate.
(§4) Unlike HLA-class I-restricted peptides, class II-restricted peptides usually vary in length and tolerate extensions at both the amino and carboxy termini, because they are not fixed by their ends in the groove. It is therefore difficult to define precisely the length of the antigenic peptide. Therefore a large number of MAGE-A3 peptides were tested at different concentrations (Tables IV and V). […] 2500 cells of clone 37 were then cocultured for 20 h in round-bottomed microwells with 5000 peptide-pulsed cells. IFN-γ released in the supernatant of the cocultures was measured in an ELISA assay. The experiments were performed in triplicate. […] Clones 2 and 22 (2500 cells) were then cocultured for 20 h in round-bottomed microwells with 5000 peptide-pulsed cells. IFN-γ released in the supernatant of the cocultures was measured in an ELISA assay. The experiments was performed twice in duplicates.

The subject of the next experiment is 7002 CD4+ clone 2. The experiment in a line: IFN-γ production by CD4+ clone 2 stimulated with peptide- or protein-pulsed EBV-B cells. Particulars: for IFN-γ production after stimulation with peptide of clone 2: 1 μg/ml peptide. As for the experimental part: as §1, §2, §3, §4
Where [2] appears, read: EBV-B cell line 7002, DR13 positive.
Where [3] appears, read: EBV-B cell line BM16, DR13 negative.
Where [4] appears, read: EBV-B cell line BOB, DR13 negative.
The mark [5] stands for this setting: EBV-B cell line BOLETH, DR13 negative.
Setting [6] is: EBV-B cell line LB1118, DR13 positive.
Setting [7] is: EBV-B cell line LB1158, DR13 positive.
Where [8] appears, read: EBV-B cell line LB1622, DR13 positive.
Setting [9] is: EBV-B cell line LB1859, DR13 positive.
Setting [10] is: EBV-B cell line LB1861, DR13 positive.
[11] abbreviates: EBV-B cell line LB1869, DR13 positive.
The mark [12] stands for this setting: EBV-B cell line LKT3, DR13 negative.
[13] abbreviates: EBV-B cell line MZ2, DR13 positive.
Setting [14] is: EBV-B cell line OLGA, DR13 negative.
The mark [15] stands for this setting: EBV-B cell line OMW, DR13 positive.
Setting [16] is: EBV-B cell line RML, DR13 negative.
Setting [17] is: EBV-B cell line RSH, DR13 negative.
[18] abbreviates: EBV-B cell line TAB089, DR13 negative.
The mark [19] stands for this setting: EBV-B cell line TISI, DR13 negative.
Where [20] appears, read: EBV-B cell line VAF, DR13 negative.
Where [21] appears, read: EBV-B cell line VET, DR13 negative.

Some results are limits rather than exact numbers.

Take “FLLLKYRAREPVTKAE (listed as Homo sapiens) [MAGE-A3119-134]”: in experiment [1], the “activation of clone B6/34 by 16 amino acid peptides” value is “unable to activate”. Also, the “IFN-γ production after stimulation with peptide of clone 22” value (“IFN-γ production … of clone 22” for short) was greater than 4000 pg/mL in the experiment with LB1158 CD4+ clone 22 (setting [2]); 7 pg/mL in the experiment on LB1158 CD4+ clone 22 (setting [3]); 46 pg/mL in the experiment on LB1158 CD4+ clone 22 (setting [4]); 6 pg/mL in the experiment with LB1158 CD4+ clone 22 (setting [5]); 1345 pg/mL with LB1158 CD4+ clone 22 (setting [6]); 3967 pg/mL in the experiment with LB1158 CD4+ clone 22 (setting [7]). Besides, the “IFN-γ production … of clone 22” value was 1250 pg/mL in the experiment on LB1158 CD4+ clone 22 (setting [8]); greater than 4000 pg/mL in the experiment on LB1158 CD4+ clone 22 (setting [9]); 3865 pg/mL with LB1158 CD4+ clone 22 (setting [10]); greater than 4000 pg/mL with LB1158 CD4+ clone 22 (setting [11]); 0 pg/mL in the experiment with LB1158 CD4+ clone 22 (setting [12]); 2030 pg/mL in the experiment on LB1158 CD4+ clone 22 (setting [13]). Besides, the “IFN-γ production … of clone 22” value in the experiment on LB1158 CD4+ clone 22 (setting [14]) is 0 pg/mL; with LB1158 CD4+ clone 22 (setting [15]), 3651 pg/mL; in the experiment with LB1158 CD4+ clone 22 (setting [16]) it was 6 pg/mL; in the experiment with LB1158 CD4+ clone 22 (setting [17]) it was 0 pg/mL; in the experiment on LB1158 CD4+ clone 22 (setting [18]), 0 pg/mL; in the experiment with LB1158 CD4+ clone 22 (setting [19]), 4 pg/mL. The “IFN-γ production … of clone 22” value in the experiment with LB1158 CD4+ clone 22 (setting [20]) is 49 pg/mL; in the experiment with LB1158 CD4+ clone 22 (setting [21]) it was 56 pg/mL. The “stimulation of clone 22” value in the experiment on LB1158 CD4+ clone 22 (similar experiments) was “also stimulated”. Moreover, the “IFN-γ production after stimulation with peptide of clone 2” value in the experiment with 7002 CD4+ clone 2 (setting [2]) is greater than 4000 pg/mL; with 7002 CD4+ clone 2 (setting [3]), 12 pg/mL; in the experiment on 7002 CD4+ clone 2 (setting [4]), 59 pg/mL; in the experiment on 7002 CD4+ clone 2 (setting [5]) it was 0 pg/mL; in the experiment with 7002 CD4+ clone 2 (setting [6]), greater than 4000 pg/mL; with 7002 CD4+ clone 2 (setting [7]) it was greater than 4000 pg/mL. Moreover, the “IFN-γ production after stimulation with peptide of clone 2” value with 7002 CD4+ clone 2 (setting [8]) is 3993 pg/mL; in the experiment on 7002 CD4+ clone 2 (setting [9]), greater than 4000 pg/mL; in the experiment with 7002 CD4+ clone 2 (setting [10]), greater than 4000 pg/mL; with 7002 CD4+ clone 2 (setting [11]) it was greater than 4000 pg/mL; in the experiment on 7002 CD4+ clone 2 (setting [12]) it was 0 pg/mL; in the experiment on 7002 CD4+ clone 2 (setting [13]), greater than 4000 pg/mL. Further, the “IFN-γ production after stimulation with peptide of clone 2” value is 0 pg/mL with 7002 CD4+ clone 2 (setting [14]); 3153 pg/mL with 7002 CD4+ clone 2 (setting [15]); 0 pg/mL in the experiment on 7002 CD4+ clone 2 (setting [16]); 0 pg/mL in the experiment on 7002 CD4+ clone 2 (setting [17]); 0 pg/mL in the experiment on 7002 CD4+ clone 2 (setting [18]); 4 pg/mL in the experiment on 7002 CD4+ clone 2 (setting [19]). The “IFN-γ production after stimulation with peptide of clone 2” value with 7002 CD4+ clone 2 (setting [20]) and with 7002 CD4+ clone 2 (setting [21]) was 0 pg/mL throughout. Further, the “secretion of IFN-γ by clone 2” value in the experiment on 7002 CD4+ clone 2 (peptide at 10 ng/ml, HLA-DR13 EBV-B cells) was “stimulated secretion of IFN-γ”.

B1: MAGE-A3: MAGE-A3 protein; recombinant His-MAGE-A3 produced in E. coli, or expressed from MFG MAGE-A3 retrovirus in Example 6 (protein, listed as Homo sapiens)
chain: MPLEQRSQHCKPEEGLEARGEALGLVGAQAPATEEQEAASSSSTLVEVTLGEVPAAESPDPPQSPQGASSLPTTMNYPLWSQSYEDSSNQEEEGPSTFPDLESEFQAALSRKVAELVHFLLLKYRAREPVTKAEMLGSVVGNWQYFFPVIFSKASSSLQLVFGIELMEVDPIGHLYIFATCLGLSYDGLLGDNQIMPKAGLLIIVLAIIAREGDCAPEEKIWEELSVLEVFEGREDSILGDPKKLLTQHFVQENYLEYRQVPGSDPACYEFLWGPRALVETSYVKVLHHMVKISGGPHISYPPLHEWVLREGEE
modifications: His tag
Turning to B1, the “IFN-γ secretion by clone 22 upon stimulation with protein-loaded autologous EBV-B cells” value in the experiment on LB1158 CD4+ clone 22 is on record as “secreted IFN-γ”. For the same molecule, the “IFN-γ secretion by clone 2 upon stimulation with protein-loaded autologous EBV-B cells” value with 7002 CD4+ clone 2 is “secreted IFN-γ”.
